This is an account of results in PubChem BioAssay AID1259407 (Chemical Carcinogenesis Research Information System (CCRIS), 2018).

For this data set, the system named is CCRIS mutagenicity, Ames/micronucleus/aberration tests. The data set is described as follows: CCRIS mutagenicity studies.

Calls of active or inactive are those of the source. The rule behind the calls is not given here.

With `BrC(Br)Br`, the mutagenic call is “inactive; negative” (End Point: IN VITRO CHROMOSOMAL ABERRATIONS, Test System: CHO CELLS, Metabolic Activation: NONE); “inactive; negative” (End Point: IN VITRO CHROMOSOMAL ABERRATIONS, Test System: CHO CELLS, Metabolic Activation: RAT, LIVER, S-9, AROCLOR 1254); “inactive; negative” (End Point: IN VIVO MICRONUCLEUS, Test System: BONE MARROW POLYCHROMATIC ERYTHROCYTES, Species: MOUSE, Strain/Sex: DDY/MALE, Route: IP); “active; positive” (Test System: AMES SALMONELLA TYPHIMURIUM, Strain/Indicator: RSJ100, Metabolic Activation: NONE, Method: PREINCUBATION); “active; positive” (Test System: AMES SALMONELLA TYPHIMURIUM, Strain/Indicator: RSJ100, Metabolic Activation: NONE, Method: STANDARD PLATE); “inactive; negative” (Test System: AMES SALMONELLA TYPHIMURIUM, Strain/Indicator: RSJ100, Metabolic Activation: RAT LIVER S-9, Method: PREINCUBATION). Further, the mutagenic call (Test System: AMES SALMONELLA TYPHIMURIUM, Strain/Indicator: TA97, Metabolic Activation: HAMSTER, LIVER, S-9 (10% OR 30%), AROCLOR 1254, Method: PREINCUBATION) was “inactive; negative”; the mutagenic call (Test System: AMES SALMONELLA TYPHIMURIUM, Strain/Indicator: TA97, Metabolic Activation: NONE, Method: PREINCUBATION) is “inactive; negative”; the mutagenic call (Test System: AMES SALMONELLA TYPHIMURIUM, Strain/Indicator: TA97, Metabolic Activation: RAT, LIVER, S-9 (10% OR 30%), AROCLOR 1254, Method: PREINCUBATION) was “inactive; negative”; the mutagenic call (Test System: AMES SALMONELLA TYPHIMURIUM, Strain/Indicator: TA98, Metabolic Activation: HAMSTER, LIVER, S-9 (5% OR 10%), AROCLOR 1254, Method: PREINCUBATION) is “inactive; negative”; the mutagenic call (Test System: AMES SALMONELLA TYPHIMURIUM, Strain/Indicator: TA98, Metabolic Activation: HAMSTER, LIVER, S-9, AROCLOR 1254, Method: PREINCUBATION) was “inactive; negative”; the mutagenic call (Test System: AMES SALMONELLA TYPHIMURIUM, Strain/Indicator: TA98, Metabolic Activation: NONE, Method: STANDARD PLATE) is “inactive; negative”. Besides, the mutagenic call is “active; positive” (Test System: AMES SALMONELLA TYPHIMURIUM, Strain/Indicator: TA98, Metabolic Activation: RAT LIVER S-9, Method: PREINCUBATION); “inactive; negative” (Test System: AMES SALMONELLA TYPHIMURIUM, Strain/Indicator: TA98, Metabolic Activation: RAT, LIVER, S-9 (10% OR 30%), AROCLOR 1254, Method: PREINCUBATION); “inactive; negative” (Test System: AMES SALMONELLA TYPHIMURIUM, Strain/Indicator: TA98, Metabolic Activation: RAT, LIVER, S-9, AROCLOR 1254, Method: PREINCUBATION); “inactive; negative” (Test System: AMES SALMONELLA TYPHIMURIUM, Strain/Indicator: TA98, Metabolic Activation: RAT, LIVER, S-9, AROCLOR 1254, Method: STANDARD PLATE); “inactive; negative” (Test System: AMES SALMONELLA TYPHIMURIUM, Strain/Indicator: TA100, Metabolic Activation: HAMSTER, LIVER, S-9 (10% OR 30%), AROCLOR 1254, Method: PREINCUBATION); “inactive; negative” (Test System: AMES SALMONELLA TYPHIMURIUM, Strain/Indicator: TA100, Metabolic Activation: HAMSTER, LIVER, S-9, AROCLOR 1254, Method: PREINCUBATION). The mutagenic call is “active; positive” (Test System: AMES SALMONELLA TYPHIMURIUM, Strain/Indicator: TA100, Metabolic Activation: NONE, Method: DESICCATOR); “active; positive” (Test System: AMES SALMONELLA TYPHIMURIUM, Strain/Indicator: TA100, Metabolic Activation: NONE, Method: FLUCTUATION TEST); “inactive; negative” (Test System: AMES SALMONELLA TYPHIMURIUM, Strain/Indicator: TA100, Metabolic Activation: NONE, Method: STANDARD PLATE); “inactive; negative” (Test System: AMES SALMONELLA TYPHIMURIUM, Strain/Indicator: TA100, Metabolic Activation: RAT LIVER S-9, Method: PREINCUBATION); “inactive; negative” (Test System: AMES SALMONELLA TYPHIMURIUM, Strain/Indicator: TA100, Metabolic Activation: RAT, LIVER, S-9 (10% OR 30%), AROCLOR 1254, Method: PREINCUBATION); “inactive; negative” (Test System: AMES SALMONELLA TYPHIMURIUM, Strain/Indicator: TA100, Metabolic Activation: RAT, LIVER, S-9, AROCLOR 1254, Method: FLUCTUATION TEST). The mutagenic call (Test System: AMES SALMONELLA TYPHIMURIUM, Strain/Indicator: TA100, Metabolic Activation: RAT, LIVER, S-9, AROCLOR 1254, Method: PREINCUBATION) was “inactive; negative”; the mutagenic call (Test System: AMES SALMONELLA TYPHIMURIUM, Strain/Indicator: TA100, Metabolic Activation: RAT, LIVER, S-9, AROCLOR 1254, Method: STANDARD PLATE) was “inactive; negative”; the mutagenic call (Test System: AMES SALMONELLA TYPHIMURIUM, Strain/Indicator: TA1535, Metabolic Activation: HAMSTER, LIVER, S-9 (10% OR 30%), AROCLOR 1254, Method: PREINCUBATION) was “inactive; negative”; the mutagenic call (Test System: AMES SALMONELLA TYPHIMURIUM, Strain/Indicator: TA1535, Metabolic Activation: HAMSTER, LIVER, S-9, AROCLOR 1254, Method: PREINCUBATION) was “inactive; negative”; the mutagenic call (Test System: AMES SALMONELLA TYPHIMURIUM, Strain/Indicator: TA1535, Metabolic Activation: NONE, Method: DESICCATOR) was “active; positive”; the mutagenic call (Test System: AMES SALMONELLA TYPHIMURIUM, Strain/Indicator: TA1535, Metabolic Activation: NONE, Method: PREINCUBATION) is “inactive; negative”. In addition, the mutagenic call (Test System: AMES SALMONELLA TYPHIMURIUM, Strain/Indicator: TA1535, Metabolic Activation: NONE, Method: STANDARD PLATE) was “inactive; negative”; the mutagenic call (Test System: AMES SALMONELLA TYPHIMURIUM, Strain/Indicator: TA1535, Metabolic Activation: RAT, LIVER, S-9 (10% OR 30%), AROCLOR 1254, Method: PREINCUBATION) is “inactive; negative”; the mutagenic call (Test System: AMES SALMONELLA TYPHIMURIUM, Strain/Indicator: TA1535, Metabolic Activation: RAT, LIVER, S-9, AROCLOR 1254, Method: PREINCUBATION) was “inactive; negative”; the mutagenic call (Test System: AMES SALMONELLA TYPHIMURIUM, Strain/Indicator: TA1535, Metabolic Activation: RAT, LIVER, S-9, AROCLOR 1254, Method: STANDARD PLATE) was “inactive; negative”; the mutagenic call (Test System: AMES SALMONELLA TYPHIMURIUM, Strain/Indicator: TA1537, Metabolic Activation: HAMSTER, LIVER, S-9 (10% OR 30%), AROCLOR 1254, Method: PREINCUBATION) is “inactive; negative”; the mutagenic call (Test System: AMES SALMONELLA TYPHIMURIUM, Strain/Indicator: TA1537, Metabolic Activation: HAMSTER, LIVER, S-9, AROCLOR 1254, Method: PREINCUBATION) is “inactive; negative”. Besides, the mutagenic call is, setting by setting: (Test System: AMES SALMONELLA TYPHIMURIUM, Strain/Indicator: TA1537, Metabolic Activation: NONE, Method: PREINCUBATION) “inactive; negative”; (Test System: AMES SALMONELLA TYPHIMURIUM, Strain/Indicator: TA1537, Metabolic Activation: NONE, Method: STANDARD PLATE) “inactive; negative”; (Test System: AMES SALMONELLA TYPHIMURIUM, Strain/Indicator: TA1537, Metabolic Activation: RAT, LIVER, S-9 (10% OR 30%), AROCLOR 1254, Method: PREINCUBATION) “inactive; negative”; (Test System: AMES SALMONELLA TYPHIMURIUM, Strain/Indicator: TA1537, Metabolic Activation: RAT, LIVER, S-9, AROCLOR 1254, Method: PREINCUBATION) “inactive; negative”; (Test System: AMES SALMONELLA TYPHIMURIUM, Strain/Indicator: TA1537, Metabolic Activation: RAT, LIVER, S-9, AROCLOR 1254, Method: STANDARD PLATE) “inactive; negative”; (Test System: MOUSE LYMPHOMA, Strain/Indicator: L5178Y (TK+/TK-), Metabolic Activation: NONE, Method: SUSPENSION/PLATE) “active; positive”. For the same compound, the mutagenic call is, setting by setting: (Test System: MOUSE LYMPHOMA, Strain/Indicator: L5178Y (TK+/TK-), Metabolic Activation: RAT, LIVER, S-9, AROCLOR 1254, Method: SUSPENSION/PLATE) “active; positive”; (Test System: UDS RAT HEPATOCYTES, Strain/Indicator: THY INCORP, Metabolic Activation: NONE, Method: AUTORADIOGRAPHY) “inactive; negative”.

Turning to `CCCCN(CCC(=O)OC)N=O`, the mutagenic call (Test System: AMES SALMONELLA TYPHIMURIUM, Strain/Indicator: TA1535, Metabolic Activation: RAT, LIVER, S-9, KC500 OR PHENOBARBITAL, Method: LIQUID SUSPENSION) was “active; positive”.

Consider `IC(I)I`, for which the mutagenic call runs as follows: (End Point: IN VITRO CHROMOSOMAL ABERRATIONS, Test System: SYRIAN HAMSTER EMBRYO (SHE) CELLS, Metabolic Activation: NONE) “inactive; negative; toxicity at 160 and 240 um”; (End Point: IN VITRO CHROMOSOMAL ABERRATIONS, Test System: SYRIAN HAMSTER EMBRYO (SHE) CELLS, Metabolic Activation: RAT, LIVER, S-9) “inactive; negative”; (End Point: In vitro chromosomal aberrations, Test System: D824 human dental pulp cells, Metabolic Activation: None) “active; positive (structural changes and ploidy)”.
